Test results from patent US12681006B2, “Methods of generating human endometrial stromal fibroblasts and three-dimensional multi-layered human endometrial tissue compositions” (Northwestern University, priority 2021, dated 2026).
Where “and” joins values, the source holds several entries; their conditions need not be identical. Equal entries are not always repeated.

Columns and labels:
Format in all cases: cell-based, human
[1] = test system: pluripotent stem cells (PSC); assay: Differentiation of PSC to intermediate mesoderm with CHIR99021, marker expression by qPCR/ICC
Excerpt: Generation of ESF from pluripotent stem cells (PSC) involves sequential differentiation of the cells through a series of intermediate progenitor cells species (FIG. 6). The first step (FIG. 1a) requires the specification of intermediate mesoderm (IM), a common mesodermal progenitor for both nephric and reproductive tracts (Yucer et al., 2017). […] We observed high levels of mesodermal-specific Brachyury (TBXT) gene expression, and concurrent reduction of pluripotency markers OCT3/4 and SOX2 in 2 days (FIG. 1b, d). LHX1 and PAX2, two transcription factors expressed in the intermediate mesoderm (IM), also were detected at this time (FIG. 1c, d). […] At day 4 of differentiation, TBXT expression was decreased, LHX1 and PAX2 expression was either maintained or increased, and expression of anti-Müllerian hormone receptor 2 (AMHR2), a specific marker of Müllerian duct mesenchyme, increased (FIG. 1b, c, e).
(§1) Monolayer Cell Culture and Differentiation: Both embryonic (H7) and iPS (reprogrammed from Coriell fibroblast GM03651 by Sendai virus (ThermoFisher #A16517) following manufacturer's instruction) cells lines of female origin (XX) were used for differentiation as well as co-culture. Cells were cultured in mTeSR1 media (STEMCELL Technologies #85875) and on Corning Matrigel hESC-Qualified Matrix (Corning™ #354277) coated tissue culture plastic plates. Lot specific dilution factor volume provided by the manufacturer is diluted into 24 mL of cold DMEM/F12 (ThermoFisher Scientific #11320-082). To coat: 1 mL of this solution is applied to 1 well of a 6 well plate (9.6 cm^2) and incubated at RT for 1 hr or 37 C for 30 min. To differentiate, PSC were dissociated to single-cell level using Accutase (EMD Millipore #SCR005). Once at single cell level, equal volume mTeSR1 was added to stop dissociation and cells were pelleted at 0.2e3 rcf for 5 min. Supernatant was discarded and the remaining pellet of PSC was resuspended in mTeSR1 and 10 μM Y27632 (Reprocell #04-0012-02) and plated onto Corning Matrigel hESC-Qualified Matrix coated tissue culture plates at 3×10^5 per 3.8 cm^2 or equivalent density. Media is replaced with Differentiation Basal Media (Advanced RPMI 1640 (Gibco #12633020), 1× Gluatmax (Gibco #35050061) and […] CHIR99021 (STEMCELL Technologies #72054). After 4 days, the media is changed to Differentiation Basal Media containing 100 ng/mL recombinant Human WNT7A (R&D Systems #3008-WN-025). The final differentiation treatment media was Differentiation Basal Media with 10 ng/mL Recombinant Human BMP2 (R&D Systems #355-BM010), and 10 nM β-estradiol (E2, Millipore Sigma #E2758-250MG). While it varies by cell line, the expected yield at day 12 off differentiation when starting with 3×10^5 stem cells is 0.6×10^6-13.2×10^6 PSC-ESF.
(§2) qRT-PCR: RNA Isolation was performed using the RNAqueous-Micro Total RNA Isolation Kit (ThermoFisher Scientific #AM1931) following manufacturer's instructions. DNAse treatment and reverse transcription were performed using SuperScript IV VILO Master Mix with ezDNase Enzyme (ThermoFisher Scientific #11766050) following manufacturer's instructions. Quantitative PCR was performed using SYBR Green PCR Master Mix (ThermoFisher Scientific #4312704) using the QuantStudio 7. ESC and iPSC differentiated cells were used for analysis. A list of primers can be found in Table 1.
Immunocytochemistry: Monolayer cultures: cells cultured on Matrigel coated coverslips were washed with 1×DPBS (Corning #21031CV) before fixing the cells using 4% Formaldehyde solution (Millipore Sigma #P6148) for 20 min at room temperature. After 20 min, cells are washed 3 times with 1×DPBS. Prior to staining, cells were blocked for 1 hr at RT in PBS (Fisher Scientific #AM9625), 0.1% BSA (Millipore Sigma #A7906), 0.25% Triton-X (Millipore Sigma #T8787), and 10% Normal Goat Serum (Jackson Immuno Research #005-000-121). Primary Antibodies were diluted into the same buffer for incubation at 4° C. overnight. […]

[2] = test system: Hedgehog signaling; assay: Inhibition of Hedgehog signaling in PSC-ESF/EEO co-cultures with cyclopamine, qPCR
Procedure: FIG. 12a-FIG. 12d. […] Related to FIG. 5 a. Schematic of treatment paradigm for inhibition of Hedgehog signaling. Co-cultures were cultured in vehicle treatment media with either 10 uM cyclopamine (+) or vehicle (EtOH, −). After 48 h co-cultures were harvested for RNA and qPCR analysis. b. Gene expression of direct downstream mediators of IHH signaling: GLI1 and GLI2. […] (d12 v.−ns p-value=0.0953; −v.+ns p-value−v.+p-value=0.2661). c. […] (Lachman, A., 2010; ENCODE Project Consortium, 2011) d. Top 10 pathways enriched in decidualized co-cultured PSC-ESF over decidualized monolayer ESF as analyzed by the integrated Bioplanet 2019 platform. Both enrichment analyses done using Enrichr with a 2-fold cutoff ((http://amp.pharm.mssm.edu/Enrichr/).
BMP2, a member of the TGF B family, is necessary for decidualization (FIG. 5d). BMP2 in ESF can be activated by hormone treatments, such as P4 and cAMP, which directly increase BMP2 expression to mediate decidualization in hESF (Lee et al., 2007). In the mouse, stromal BMP2 is further amplified indirectly by P4 activated IHH from the luminal epithelium (Lee et al., 2007). Increased stromal BMP2 subsequently mediates decidualization by activating WNT (WNT4) signaling, FK506-binding proteins (FKBP5), and prostaglandin (PTGS1) (Li et al., 2013). To examine the hormone mediated activation of IHH signaling in co-cultured PSC-ESF, we analyzed expression of IHH and BMP signaling targets after decidualization. […] HOXA10, a mediator of stromal hormone response, was not increased by co-culture. However, it trended towards an increase after hormone treatment, though without statistical significance (FIG. 5e). Importantly, we observed that BMP2 and BMP2 signaling targets (WNT4, FKBP5, and PTGS1) also were increased in expression in response to co-culture, while BMP2, FKBP5, and PTGS1 were further increased by hormone treatment (FIG. 5e).
as §2

[3] = test system: PSC derived cells, day 4 of differentiation; assay: WNT7A treatment day 4-8 to expand Müllerian duct mesenchyme (PSC-ESP), marker expression by qPCR/ICC
Procedure: To preferentially expand the Müllerian duct mesenchyme population, at day 4 we continued activating the WNT/B-catenin pathway with WNT7A (100 ng/ml) treatment from day 4-8. […] The Müllerian duct is patterned along the anterior-posterior axis to develop into the fallopian tubes (HOXA9), endometrium (HOXA10 and HOXA11), cervix (HOXA11), and vagina (HOXA13) (Du and Taylor, 2015). […] Immunocytochemical (ICC) analyses validated the qPCR results with increasing nuclear expression of the HOXA11 transcription factor from day 0 to day 8 (FIG. 1g). The expression of mesenchymal lineage markers platelet derived growth factor beta (PDGFRβ) and vimentin (VIM) supported specification to the stromal cell type (FIG. 1h). HOXA11 was confirmed to be co-expressed with mesenchymal markers AMHR2 and VIM (FIG. 1h, i). […] Further, 93.31+1.46% of the cells were Ki67^+, confirming that the cells at day 8 are in cell cycle (FIG. 1i, j). PSC-ESP at day 8 of differentiation could be frozen and thawed for subsequent differentiation, generating cells with appropriate proliferative properties and lineage-specific marker expression (FIG. 7f, g). In toto, these findings indicate that developmentally and regionally appropriate endometrial stromal progenitors, which we termed PSC-ESP, were generated at this point of the differentiation protocol.
as §1
as §2, with “1. […]” for “1.”

[4] = 10 uM cyclopamine, 48 h, vs vehicle (EtOH)
[5] = day 8, after CHIR99021 day 0-4 and WNT7A day 4-8, ICC

Cc1c[nH]c(-c2cnc(NCCNc3ccc(C#N)cn3)nc2-c2ccc(Cl)cc2Cl)n1 [CHIR99021]
LHX1 and PAX2 (intermediate mesoderm transcription factors) expression ([1]; 8 μM CHIR99021, day 2): detected | mesodermal-specific Brachyury (TBXT) gene expression ([1]; 8 μM CHIR99021, day 2 vs day 0, qPCR): high levels | expression of AMHR2, marker of Müllerian duct mesenchyme ([1]; 8 μM CHIR99021, day 4 of differentiation): increased | pluripotency markers OCT3/4 and SOX2 ([1]; 8 μM CHIR99021, in 2 days, qPCR/ICC): reduction | expression of endoderm and mesendoderm marker SOX17 ([1]; 8 μM CHIR99021, qPCR): low but significant increase | cell expansion of treated PSC ([1]; CHIR99021 treatment of PSC): rapid expansion of cells | LHX1 and PAX2 induction, comparison of concentrations of CHIR99021 ([1]; day 4, ESC, both concentrations of CHIR99021): highly, but differently induced

CC1=C2C[C@H]3[C@@H](CC=C4C[C@@H](O)CC[C@@]43C)[C@@H]2CC[C@]12O[C@@H]1C[C@H](C)CN[C@H]1[C@H]2C [cyclopamine]
GLI1 gene expression [2, 4]: significantly downregulated | GLI2 gene expression [2, 4]: similarly regulated without statistical significance | BMP2 expression ([2]; cyclopamine 48 hr, co-culture): trended towards a reduction | HOXA10 expression ([2]; cyclopamine 48 hr, co-culture): significant reduction | NR2F2 expression ([2]; cyclopamine 48 hr, co-culture): significant reduction

B1: WNT7A: recombinant Human WNT7A (R&D Systems), used as second Wnt/β-catenin agonist (protein, UniProt O00755 32-349, looked up)
Protein Wnt-7a: LGASIICNKIPGLAPRQRAICQSRPDAIIVIGEGSQMGLDECQFQFRNGRWNCSALGERTVFGKELKVGSREAAFTYAIIAAGVAHAITAACTQGNLSDCGCDKEKQGQYHRDEGWKWGGCSADIRYGIGFAKVFVDAREIKQNARTLMNLHNNEAGRKILEENMKLECKCHGVSGSCTTKTCWTTLPQFRELGYVLKDKYNEAVHVEPVRASRNKRPTFLKIKKPLSYRKPMDTDLVYIEKSPNYCEEDPVTGSVGTQGRACNKTAPQASGCDLMCCGRGYNTHQYARVWQCNCKFHWCCYVKCNTCSERTEMYTCK
expression of endometrium specific genes HOXA10 and HOXA11 ([3]; 100 ng/mL WNT7A day 4 to day 8, only in the 8 uM CHIR99021 condition): only induced high expression | Müllerian mesenchyme specific AMHR2 expression ([3]; 100 ng/ml WNT7A, day 4-8, qPCR): further induced | epithelium specific marker WNT7A expression ([3]; 100 ng/ml WNT7A, day 4-8, qPCR): did not induce | HOXA10 and HOXA11 expression ([3]; 100 ng/ml WNT7A, day 8 of differentiation, qPCR): significantly upregulated | HOXA9 (fallopian tube) and HOXA13 (vagina) expression ([3]; WNT7A day 4 through 8, d4 vs d8, qPCR): not significantly upregulated | DAPI+ cells expressing both AMHR2 and HOXA11 [3, 5]: 78.55+8.17% and 78.5% | DAPI+ cells positive for HOXA11 [3, 5]: 92.27+5.15% and 92.3% | cells Ki67+ [3, 5]: 93.31+1.46% and 93.3%
